BindingDB's records for doi:10.1021/jm950639r (Eli Lilly, 1996)

Tests used:
Assay in all cases: HIV-1 RT Assay
[1] = biological target: T1, Gag-Pol polyprotein [588-1127,L687I]/[588-1147,L687I] (Human immunodeficiency virus 1, UniProt P04585, L687I)
T1 construct: 588-1127; 588-1147

[2] = biological target: T2, Gag-Pol polyprotein [588-1027]/[588-1147] (Human immunodeficiency virus 1, UniProt P04585)
T2 construct: 588-1027; 588-1147

[3] = biological target: T3, Gag-Pol polyprotein [588-1127,Y768C]/[588-1147,Y768C] (Human immunodeficiency virus 1, UniProt P04585, Y768C)
T3 construct: 588-1127; 588-1147

Row | Compound | IC50 [1] [nM] | IC50 [3] [nM] | also measured
1 | S=C(NCCc1c[nH]c2ccccc12)Nc1ccc(Br)cn1 [1-(5-bromopyridin-2-yl)-3-[2-(1H-indol-3-yl)ethyl]thiourea] | > 2500 | – | –
2 | CCOc1ccc(OCC)c(CCNC(=S)Nc2ccc(Br)cn2)c1 [1-(5-bromopyridin-2-yl)-3-[2-(2,5-diethoxyphenyl)ethyl]thiourea] | – | – | IC50 [2]: 18 nM
3 | Cc1cc2nn(CCNC(=S)Nc3ccc(Br)cn3)nc2cc1C [1-(5-bromopyridin-2-yl)-3-[2-(5,6-dimethyl-2H-1,2,3-benzotriazol-2-yl)ethyl]thiourea] | > 2500 | 100 | –
4 | COc1ccc2[nH]cc(CC/N=C(\S)Nc3ccc(Br)cn3)c2c1 [1-(5-bromopyridin-2-yl)-3-[2-(5-methoxy-1H-indol-3-yl)ethyl]thiourea] | > 2500 | – | –
5 | COCc1ccc(F)c(CCNC(=S)Nc2ccc(Br)cn2)c1F [1-(5-bromopyridin-2-yl)-3-{2-[2,6-difluoro-3-(methoxymethyl)phenyl]ethyl}thiourea] | – | – | IC50 ([3]; pH 7.8, 37 °C): 100 nM
6 | CCOc1ccc(F)c(CCNC(=S)Nc2ncc(C(F)(F)F)s2)c1Cl [1-[2-(2-chloro-3-ethoxy-6-fluorophenyl)ethyl]-3-[5-(trifluoromethyl)-1,3-thiazol-2-yl]thiourea] | 7000 | 7000 | IC50 [2]: 47 nM
7 | CNC(=O)c1ccc(F)c(CC/N=C(\S)Nc2ccc(Br)cn2)c1F [3-(2-{[(5-bromopyridin-2-yl)carbamothioyl]amino}ethyl)-2,4-difluoro-N-methylbenzamide] | – | – | IC50 ([3]; pH 7.8, 37 °C): > 2000 nM; IC50 ([1]; pH 7.8, 37 °C): > 2000 nM
8 | S=C(NCCn1nc2ccccc2n1)Nc1ccc(Br)cn1 [3-[2-(2H-1,2,3-benzotriazol-2-yl)ethyl]-1-(5-bromopyridin-2-yl)thiourea] | – | 100 | –
9 | CC(C)=CCN1Cc2cc(Cl)cc3[nH]c(=S)n(c23)C[C@@H]1C [(11S)-6-chloro-11-methyl-10-(3-methylbut-2-en-1-yl)-1,3,10-triazatricyclo[6.4.1.0^{4,13}]trideca-4,6,8(13)-triene-2-thione] | 32200 | 13000 | –
10 | S=C(NCCc1nc2ccccc2[nH]1)Nc1ccc(Br)cn1 [N-[2-(2-Benzimidazolyl)ethyl]-N-[2-(5-bromopyridyl)]-thiourea] | > 2500 | 1860 | IC50 [2]: 21 nM
11 | CC(=O)NCc1ccc(F)c(CCNC(=S)Nc2ccc(Br)cn2)c1F [N-[2-(3-(Acetamidomethyl)-2,6-difluorophenethyl)]-N-[2-(5-bromopyridyl)]thiourea] | – | – | IC50 ([3]; pH 7.8, 37 °C): > 2000 nM; IC50 ([1]; pH 7.8, 37 °C): > 2000 nM
